As usually defined, the IC50 is the concentration at which inhibition is half-maximal.

Experimental findings from patent publication US11236045B2, “Substituted sulfoximine compounds” (CADILA HEALTHCARE LIMITED, priority 2017, dated 2022) are described below.

In this assay the test system is IL-1β. The experiment in a line: In vitro IL-1β inhibition in PMA-differentiated, LPS-primed, ATP-stimulated THP1 cells. Type of assay: cell-based. As to conditions: Homo sapiens, THP-1; THP1 monocytes differentiated with PMA, primed with 500 ng/ml LPS 4 hrs, compound 30 min, 5 mM ATP 1 hr; IL-1b in supernatant; read-out: in vitro IL-1β inhibitory activity IC50. The procedure:
THP1 ([…]) monocytes were differentiated with PMA (Phorbol 12-myristate 13-acetate) (100 ng/ml) and incubated at 37° C. for 20 h in presence of 5% CO2. 2×10^5 differentiated cells were plated per well of 96 well tissue culture plates. The cells were primed using 500 ng/ml Lipopolysaccharide and incubating for 4 hrs under the same condition. The cells were then treated with various concentrations of the compounds for 30 min followed by treatment with 5 mM ATP for 1 hr. The supernatants were collected and analysed by IL-1b (Mabtech Cat #3415-1H-20) or TNF-a (Mabtech; Cat #3510-1H-20) detection kit. The data were analyzed using GraphPad Prism V7.0. Dose Response Curve (DRC) was constructed to determine the IC50 value by fitting percentage cell survival data to the GraphPad Prism using nonlinear regression analysis.
With `CC(C)(O)c1ccc(S(=O)(=NC#N)NC(=O)Nc2c3c(cc4c2CCC4)CCC3)cc1` (centres unmarked) [Example 17, N′-cyano-N-((1,2,3,5,6,7-hexahydro-s-indacen-4-yl)carbamoyl)-4-(2-hydroxypropan-2-yl)benzenesulfonimidamide], the half-maximal inhibitory concentration (IC50) amounted to 12 nM. For `N#CN=S(=O)(NC(=O)Nc1c2c(cc3c1CCC3)CCC2)c1cccc([N+](=O)[O-])c1` (centres unmarked) [Example 18, N′-cyano-N-((1,2,3,5,6,7-hexahydro-s-indacen-4-yl)carbamoyl)-3-nitrobenzenesulfonimidamide], the IC50 was found to be 15 nM. `COc1ccc(S(=O)(=NC#N)NC(=O)Nc2c3c(cc4c2CCC4)CCC3)cc1` (centres unmarked) [Example 19, N′-cyano-N-((1,2,3,5,6,7-hexahydro-s-indacen-4-yl)carbamoyl)-4-methoxybenzenesulfonimidamide]: the 50% inhibitory concentration (IC50) came to 23 nM. Take `N#CN=S(=O)(NC(=O)Nc1c2c(cc3c1CCC3)CCC2)c1ccc(F)cc1` (centres unmarked) [Example 21, N′-cyano-4-fluoro-N-((1,2,3,5,6,7-hexahydro-s-indacen-4-yl)carbamoyl)benzenesulfonimidamide]: the IC50 is 62 nM. Turning to `COc1ccc(S(=O)(=NC#N)NC(=O)Nc2c3c(cc4c2CCC4)CCC3)cn1` (centres unmarked) [Example 24, N′-cyano-N-((1,2,3,5,6,7-hexahydro-s-indacen-4-yl)carbamoyl)-6-methoxypyridine-3-sulfonimidamide], the IC50 worked out at 34 nM.

In the case of `N#CN=S(=O)(NC(=O)Nc1c2c(cc3c1CCC3)CCC2)c1ccc(Cl)cc1` (centres unmarked) [Example 26, 4-chloro-N′-cyano-N-((1,2,3,5,6,7-hexahydro-s-indacen-4-yl)carbamoyl)benzenesulfonimidamide], the IC50 worked out at 23 nM. Regarding `N#CN=S(=O)(NC(=O)Nc1c2c(cc3c1CCC3)CCC2)c1ccc(Br)cc1` (centres unmarked) [Example 27, 4-bromo-N′-cyano-N-((1,2,3,5,6,7-hexahydro-s-indacen-4-yl)carbamoyl)benzenesulfonimidamide], the IC50 came out at 27 nM.

As for `N#CN=S(=O)(NC(=O)Nc1c2c(cc3c1CCC3)CCC2)c1ccc(C(F)(F)F)cc1` (centres unmarked) [Example 29, N′-cyano-N-((1,2,3,5,6,7-hexahydro-s-indacen-4-yl)carbamoyl)-4-(trifluoromethyl)-benzenesulfonimidamide], the IC50 stood at 32 nM. For `CC(C)(O)c1cccc(S(=O)(=NC#N)NC(=O)Nc2c3c(cc4c2CCC4)CCC3)c1` (centres unmarked) [Example 34, N′-cyano-N-((1,2,3,5,6,7-hexahydro-s-indacen-4-yl)carbamoyl)-3-(2-hydroxypropan-2-yl)benzenesulfonimidamide], the 50% inhibitory concentration (IC50) is 3 nM. With `N#CN=S(=O)(NC(=O)Nc1c2c(cc3c1CCC3)CCC2)c1ccc(C2(O)COC2)cc1` (centres unmarked) [Example 35, N′-cyano-N-((1,2,3,5,6,7-hexahydro-s-indacen-4-yl)carbamoyl)-4-(3-hydroxyoxetan-3-yl)benzenesulfonimidamide], the IC50 came to 13 nM. With `C=C(C)c1coc(S(=O)(=NC#N)NC(=O)Nc2c3c(cc4c2CCC4)CCC3)c1` (centres unmarked) [Example 36, N′-cyano-N-((1,2,3,5,6,7-hexahydro-s-indacen-4-yl)carbamoyl)-4-(prop-1-en-2-yl)furan-2-sulfonimidamide], the IC50 was 32 nM. The result for `N#CN=S(=O)(NC(=O)Nc1c2c(cc3c1CCC3)CCC2)c1ccc(Br)s1` (centres unmarked) [Example 37, 5-bromo-N′-cyano-N-((1,2,3,5,6,7-hexahydro-s-indacen-4-yl)carbamoyl)thiophene-2-sulfonimidamide] reads 5.6 nM; that for `COc1cccc(S(=O)(=NC#N)NC(=O)Nc2c3c(cc4c2CCC4)CCC3)c1` (centres unmarked) [Example 38, N′-cyano-N-((1,2,3,5,6,7-hexahydro-s-indacen-4-yl)carbamoyl)-3-methoxybenzenesulfonimidamide], 17 nM; that for `CC(C)(O)c1coc(S(=O)(=NC#N)NC(=O)Nc2c3c(cc4c2CCC4)CCC3)c1` (centres unmarked) [Example 39, N′-cyano-N-((1,2,3,5,6,7-hexahydro-s-indacen-4-yl)carbamoyl)-4-(2-hydroxypropan-2-yl)furan-2-sulfonimidamide], 3.3 nM. For the compound `N#CN=S(=O)(NC(=O)Nc1c2c(cc3c1CCC3)CCC2)c1ccc2c(c1)OCCO2` (centres unmarked) [Example 40, N′-cyano-N-((1,2,3,5,6,7-hexahydro-s-indacen-4-yl)carbamoyl)-2,3-dihydrobenzo[b][1,4]dioxine-6-sulfonimidamide], the IC50 stood at 13 nM. Consider `CC(C)(O)c1ccc(S(=O)(=NC#N)NC(=O)Nc2c3c(cc4c2CCC4)CCC3)s1` (centres unmarked) [Example 41, N′-cyano-N-((1,2,3,5,6,7-hexahydro-s-indacen-4-yl)carbamoyl)-5-(2-hydroxypropan-2-yl)thiophene-2-sulfonimidamide], for which the IC50 worked out at 4.8 nM.

As to `Cc1ccc(F)c(S(=O)(=NC#N)NC(=O)Nc2c3c(cc4c2CCC4)CCC3)c1` (centres unmarked) [Example 42, N′-cyano-2-fluoro-N-((1,2,3,5,6,7-hexahydro-s-indacen-4-yl)carbamoyl)-5-methylbenzene-sulfonimidamide], the IC50 stood at 2.4 nM. Consider `N#CN=S(=O)(NC(=O)Nc1c2c(cc3c1CCC3)CCC2)c1cccc(C(O)(C(F)(F)F)C(F)(F)F)c1` (centres unmarked) [Example 43, N′-cyano-3-(1,1,1,3,3,3-hexafluoro-2-hydroxypropan-2-yl)-N-((1,2,3,5,6,7-hexahydro-s-indacen-4-yl)carbamoyl)benzenesulfonimidamide], for which the IC50 worked out at 27 nM.

With `N#CN=S(=O)(NC(=O)Nc1c2c(cc3c1CCC3)CCC2)c1cc(F)cc(F)c1` (centres unmarked) [Example 44, N′-cyano-3,5-difluoro-N-((1,2,3,5,6,7-hexahydro-s-indacen-4-yl)carbamoyl)benzenesulfonimidamide], the IC50 was determined as 63 nM. Take `N#CN=S(=O)(NC(=O)Nc1c2c(cc3c1CCC3)CCC2)c1ccc(F)cc1F` (centres unmarked) [Example 45, N′-cyano-2,4-difluoro-N-((1,2,3,5,6,7-hexahydro-s-indacen-4-yl)carbamoyl)benzenesulfonimidamide]: the IC50 turned out to be 23 nM.

Regarding `N#CN=S(=O)(Cc1ccccc1)NC(=O)Nc1c2c(cc3c1CCC3)CCC2` (centres unmarked) [Example 48, N′-cyano-N-((1,2,3,5,6,7-hexahydro-s-indacen-4-yl)carbamoyl)-1-phenylmethanesulfonimidamide], the IC50 amounted to 3.5 nM. `N#CN=S(=O)(NC(=O)Nc1c2c(cc3c1CCC3)CCC2)c1cccs1` (centres unmarked) [Example 51, N′-cyano-N-((1,2,3,5,6,7-hexahydro-s-indacen-4-yl)carbamoyl)thiophene-2-sulfonimidamide]: the IC50 is 19 nM. Consider `COc1ccc(S(=O)(=NC#N)NC(=O)Nc2c3c(cc4c2CCC4)CCC3)cc1OC` (centres unmarked) [Example 52, N′-cyano-N-((1,2,3,5,6,7-hexahydro-s-indacen-4-yl)carbamoyl)-3,4-dimethoxybenzene-sulfonimidamide], for which the IC50 stood at 4.4 nM. Consider `Cc1cccc(S(=O)(=NC#N)NC(=O)Nc2c3c(cc4c2CCC4)CCC3)n1` (centres unmarked) [Example 53, N′-cyano-N-((1,2,3,5,6,7-hexahydro-s-indacen-4-yl)carbamoyl)-6-methylpyridine-2-sulfonimidamide], for which the IC50 was found to be 45 nM.

`N#CN=S(=O)(NC(=O)Nc1c2c(cc3c1CCC3)CCC2)c1cccc(F)c1` (centres unmarked) [Example 58, N′-cyano-3-fluoro-N-((1,2,3,5,6,7-hexahydro-s-indacen-4-yl)carbamoyl)benzenesulfonimidamide]: the IC50 stood at 38 nM. Consider `CC(C)(O)c1cc(S(=O)(=NC#N)NC(=O)Nc2c3c(cc4c2CCC4)CCC3)ccc1F` (centres unmarked) [Example 63, N′-cyano-4-fluoro-N-((1,2,3,5,6,7-hexahydro-s-indacen-4-yl)carbamoyl)-3-(2-hydroxypropan-2-yl)benzenesulfonimidamide], for which the IC50 came to 7.8 nM.

Take `CC(C)(O)c1ccc(F)c(S(=O)(=NC#N)NC(=O)Nc2c3c(cc4c2CCC4)CCC3)c1` (centres unmarked) [Example 64, N′-cyano-2-fluoro-N-((1,2,3,5,6,7-hexahydro-s-indacen-4-yl)carbamoyl)-5-(2-hydroxypropan-2-yl)benzenesulfonimidamide]: the IC50 was found to be 7.7 nM. With `CC(C)(O)c1cncc(S(=O)(=NC#N)NC(=O)Nc2c3c(cc4c2CCC4)CCC3)c1` (centres unmarked) [Example 65, N′-cyano-N-((1,2,3,5,6,7-hexahydro-s-indacen-4-yl)carbamoyl)-5-(2-hydroxypropan-2-yl)pyridine-3-sulfonimidamide], the IC50 came to 1.26 nM.

With `N#CN=S(=O)(Cc1ccc(C#N)cc1)NC(=O)Nc1c2c(cc3c1CCC3)CCC2` (centres unmarked) [Example 66, N′-cyano-1-(4-cyanophenyl)-N-((1,2,3,5,6,7-hexahydro-s-indacen-4-yl)carbamoyl)-methanesulfonimidamide], the IC50 is 4 nM.
